This note sets out measurements from article PMC6851342 (The Journal of Biological Chemistry, 2019).

The experiment concerns the target T1, WT EhV1 (A3B3DF complex, V1-ATPase from Enterococcus hirae) (Enterococcus hirae, UniProt Q08636+Q08637).
T1 construct: gene ntpA
The experiment can be described thus: single-molecule rotation, ADP-dependent backward steps and pause durations. Format: biochemical. The note with it: ATPγS-driven rotation; 10-100 μM ATPγS, 1-300 μM ADP, no ADP-quenching system, pH 6.5.

`Nc1ncnc2c1ncn2[C@@H]1O[C@H](COP(=O)(O)OP(=O)(O)O)[C@@H](O)[C@H]1O` [ADP]: the “single-molecule rotation, ADP-dependent backward steps and pause durations” value is reported as “the addition of ADP causes frequent backward steps during the rotation”.
